Assay results published in PubChem BioAssay AID248 (DTP/NCI, 2004).
Where “and” joins values, the source holds several entries; their conditions need not be identical. Equal entries are not always repeated. Toxic doses and inconclusive results are not listed. Cut-off read from the data, not from the text of the source: active = T/C of 150% or more; inactive = T/C below 125%.

Tested on: L1210 leukemia ip in BDF1 mice, survival T/C
Assay: NCI In Vivo Anticancer Drug Screen. Data for tumor model L1210 Leukemia (intraperitoneal) in B6D2F1 (BDF1) mice
Details: endpoint: mean survival time, higher = longer survival
In short: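 Antitumor effect is assessed in tumor-bearing animals. Survival in the compound arm is compared with a vehicle-dosed control arm and expressed as their quotient.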

[1] = dose: 100.0 mg/kg/injection, schedule: Q01DX001 (ip), vehicle: saline
[2] = dose: 200.0 mg/kg/injection, schedule: Q01DX001 (ip), vehicle: saline
[3] = dose: 400.0 mg/kg/injection, schedule: Q01DX001 (ip), vehicle: saline
[4] = dose: 100.0 mg/kg/injection, schedule: Q01DX009 (ip), vehicle: saline with Tween-80
[5] = dose: 200.0 mg/kg/injection, schedule: Q01DX009 (ip), vehicle: saline with Tween-80
[6] = dose: 100.0 mg/kg/injection, schedule: Q04DX002 (ip), vehicle: Klucel (hydroxypropylcellulose) (HPC)
[7] = dose: 200.0 mg/kg/injection, schedule: Q04DX002 (ip), vehicle: Klucel (hydroxypropylcellulose) (HPC)
[8] = dose: 50.0 mg/kg/injection, schedule: Q01DX009 (ip), vehicle: saline
[9] = dose: 100.0 mg/kg/injection, schedule: Q01DX009 (ip), vehicle: saline
[10] = dose: 100.0 mg/kg/injection, schedule: Q04DX003 (ip), vehicle: saline
[11] = dose: 200.0 mg/kg/injection, schedule: Q01DX009 (ip), vehicle: saline
[12] = dose: 200.0 mg/kg/injection, schedule: Q04DX003 (ip), vehicle: saline
[13] = dose: 6.25 mg/kg/injection, schedule: Q01DX009 (ip), vehicle: saline

Measured: T/C

O=c1[nH]cnc2c(C3OC(CO)C(O)C3O)[nH]nc12 (configuration not stated)
inactive: dose: 10.0 mg/kg/injection, schedule: Q01DX015 (ip), vehicle: carboxymethylcellulose (CMC) 86 % of control | dose: 20.0 mg/kg/injection, schedule: Q01DX015 (ip), vehicle: carboxymethylcellulose (CMC) 88 % of control

O=C(C/C(=N/O)c1ccccc1)c1ccccc1
inactive: dose: 50.0 mg/kg/injection, schedule: Q01DX001 (ip), vehicle: saline 98 % of control | [1] 102 % of control | [2] 96 % of control | [3] 90 % of control

CCCCNc1ccc(S(=O)(=O)c2ccc(NCCCC)c([N+](=O)[O-])c2)cc1[N+](=O)[O-]
inactive: dose: 1.56 mg/kg/injection, schedule: Q01DX009 (ip), vehicle: DMSO 89 % of control | dose: 3.12 mg/kg/injection, schedule: Q01DX009 (ip), vehicle: DMSO 101 % of control | dose: 6.25 mg/kg/injection, schedule: Q01DX009 (ip), vehicle: DMSO 101 % of control | dose: 25.0 mg/kg/injection, schedule: Q01DX009 (ip), vehicle: DMSO 102 % of control | dose: 100.0 mg/kg/injection, schedule: Q01DX005 (ip), vehicle: DMSO 105 % of control | dose: 100.0 mg/kg/injection, schedule: Q01DX009 (ip), vehicle: DMSO 100 % of control | dose: 100.0 mg/kg/injection, schedule: Q04DX002 (ip), vehicle: DMSO 103 % of control | dose: 200.0 mg/kg/injection, schedule: Q01DX005 (ip), vehicle: DMSO 90 % of control | dose: 200.0 mg/kg/injection, schedule: Q04DX002 (ip), vehicle: DMSO 111 % of control | dose: 400.0 mg/kg/injection, schedule: Q01DX005 (ip), vehicle: DMSO 93 % of control | dose: 400.0 mg/kg/injection, schedule: Q04DX002 (ip), vehicle: DMSO 103 % of control

COc1ccc(C)cc1NC(=O)SCCSC(=O)Nc1cc(C)ccc1OC
inactive: [4] 100 % of control | [5] 87 % of control

O=C1C2(c3ccccc3)CCC1(c1ccccc1)C(c1ccccc1)=C2c1ccccc1
inactive: dose: 100.0 mg/kg/injection, schedule: Q01DX001 (ip), vehicle: saline with Tween-80 93 % of control

O=C(O)c1cc(=O)c2cccc(Cl)c2[nH]1
inactive: dose: 50.0 mg/kg/injection, schedule: Q04DX002 (ip), vehicle: Klucel (hydroxypropylcellulose) (HPC) 103 % of control | [6] 100 % of control | [7] 96 % of control

O=C(c1ccccc1)C(O)(CC(c1ccccc1)[P+](c1ccccc1)(c1ccccc1)c1ccccc1)c1ccccc1 (configuration not stated)
inactive: dose: 1.75 mg/kg/injection, schedule: Q01DX009 (ip), vehicle: saline 93 % of control | dose: 3.5 mg/kg/injection, schedule: Q01DX009 (ip), vehicle: saline 93 % of control | dose: 6.25 mg/kg/injection, schedule: Q01DX009 (ip), vehicle: Klucel (hydroxypropylcellulose) (HPC) 102 % of control | dose: 12.5 mg/kg/injection, schedule: Q01DX009 (ip), vehicle: Klucel (hydroxypropylcellulose) (HPC) 107 % of control | dose: 400.0 mg/kg/injection, schedule: Q01DX001 (ip), vehicle: saline with Tween-80 87 % of control

Cn1cnc([N+](=O)[O-])c1Cl
inactive: [8] 102 % of control | [9] 103 % of control | [10] 94 % of control | [11] 92 % of control | [12] 102 % of control

O=C(OCCOCCN1CCCCC1)N1c2ccccc2Sc2cccnc21
inactive: dose: 5.0 mg/kg/injection, schedule: Q01DX001 (ip), vehicle: saline 104 % of control | [13] 102 % of control | dose: 10.0 mg/kg/injection, schedule: Q01DX001 (ip), vehicle: saline 101 % of control | dose: 12.5 mg/kg/injection, schedule: Q01DX009 (ip), vehicle: saline 107 % of control | dose: 20.0 mg/kg/injection, schedule: Q01DX001 (ip), vehicle: saline 98 % of control | dose: 25.0 mg/kg/injection, schedule: Q01DX009 (ip), vehicle: saline 103 % of control | dose: 25.0 mg/kg/injection, schedule: Q04DX003 (ip), vehicle: saline 106 % of control | dose: 40.0 mg/kg/injection, schedule: Q01DX001 (ip), vehicle: saline 101 % of control | [8] 101 % of control | dose: 50.0 mg/kg/injection, schedule: Q04DX003 (ip), vehicle: saline 111 % of control | dose: 80.0 mg/kg/injection, schedule: Q01DX001 (ip), vehicle: saline 101 % of control | [1] 98 % of control | [10] 106 % of control

C1CN(P(N2CCOCC2)N2CCOCC2)CCO1
inactive: [9] 104 % of control | [11] 98 % of control | dose: 400.0 mg/kg/injection, schedule: Q01DX009 (ip), vehicle: saline 98 % of control

Cc1nnc(N)s1
inactive: dose: 100.0 mg/kg/injection, schedule: Q01DX001 (ip), vehicle: other 102 % of control | [4] 95 % of control | dose: 100.0 mg/kg/injection, schedule: Q04DX003 (ip), vehicle: other 104 % of control | dose: 200.0 mg/kg/injection, schedule: Q01DX001 (ip), vehicle: other 102 % of control | [5] 92 % of control | dose: 200.0 mg/kg/injection, schedule: Q04DX003 (ip), vehicle: other 95 % of control | dose: 400.0 mg/kg/injection, schedule: Q01DX001 (ip), vehicle: other 100 % of control | dose: 400.0 mg/kg/injection, schedule: Q01DX009 (ip), vehicle: saline with Tween-80 93 % of control | dose: 400.0 mg/kg/injection, schedule: Q04DX003 (ip), vehicle: other 98 % of control

ClC1=C(Cl)C2(Cl)C(Cl)CC1(Cl)C2(Cl)Cl (configuration not stated)
inactive: [1] 97 % of control | [10] 110 % of control | [2] 90 % of control | [12] 96 % of control | [3] 97 % of control

CCN(CC)CCOc1ccccc1-c1nc2ccccc2s1
inactive: dose: 25.0 mg/kg/injection, schedule: Q01DX009 (ip), vehicle: Klucel (hydroxypropylcellulose) (HPC) 104 % of control | dose: 50.0 mg/kg/injection, schedule: Q01DX009 (ip), vehicle: Klucel (hydroxypropylcellulose) (HPC) 98 % of control | dose: 100.0 mg/kg/injection, schedule: Q01DX009 (ip), vehicle: Klucel (hydroxypropylcellulose) (HPC) 96 % of control and 108 % of control

C=CC=O
inactive: dose: 3.0 mg/kg/injection, schedule: Q01DX009 (ip), vehicle: saline 96 % of control | dose: 3.12 mg/kg/injection, schedule: Q01DX009 (ip), vehicle: saline 98 % of control | dose: 3.12 mg/kg/injection, schedule: Q04DX003 (ip), vehicle: saline 91 % of control | dose: 6.0 mg/kg/injection, schedule: Q01DX009 (ip), vehicle: saline 102 % of control | [13] 90 % of control | dose: 6.25 mg/kg/injection, schedule: Q04DX003 (ip), vehicle: saline 97 % of control | dose: 7.5 mg/kg/injection, schedule: Q04DX003 (ip), vehicle: saline 88 % of control | dose: 12.0 mg/kg/injection, schedule: Q01DX009 (ip), vehicle: saline 102 % of control | dose: 12.0 mg/kg/injection, schedule: Q04DX003 (ip), vehicle: Klucel (hydroxypropylcellulose) (HPC) 98 % of control | dose: 12.5 mg/kg/injection, schedule: Q04DX003 (ip), vehicle: saline 89 % of control | dose: 25.0 mg/kg/injection, schedule: Q04DX003 (ip), vehicle: Klucel (hydroxypropylcellulose) (HPC) 101 % of control | [1] 117 % of control | [2] 109 % of control | [3] 98 % of control

Cc1cccc(CN=C(N)CCl)n1
inactive: [6] 98 % of control | [7] 95 % of control
